Earlier results on two substances are cited in paper PMC3922827 (Journal of the American Chemical Society, 2013).

Read-outs that look alike come from different tables or passages of the source. No end group written: not given here. *: point of attachment. For = O=C*

The conditions of the data set: graded or all-or-none class.

For-MAQKIISTIGKLVKWIIKTVNKFTKK [DL-1]: the “type of dye release from lipid vesicles” value (LUVs) is on record as “all-or-none”.

With AGWLLGKINLKALAALAKKIL-NH2 [TP10W], the “type of dye release from lipid vesicles” value was “graded”.
